Source: patent publication US20260000654A1, “USE OF BENCYCLOQUIDIUM BROMIDE, ISOMER THEREOF AND DERIVATIVE THEREOF IN PREPARATION OF OPHTHALMIC FORMULATION” (Beijing Yingu Medicine Sci Techno Co., Ltd., priority 2023, published 2026)
Entries after “also recorded” stand apart in the source; their conditions may differ.

System: animal model of form-deprivation myopia (FDM)
Experiment: form-deprivation myopia (FDM) model experiment on colorful guinea pigs
Settings: for change value of ocular axial length: 0.05% eye drops once a day, after four weeks, compared with model control group; for body weight: during the experiment, among the groups
Procedure: An animal model of form-deprivation myopia (FDM) was prepared by using the monocular deprived (MD) method, i.e., covering one eye with an opaque eye patch to cause form-deprivation.
Models were established for each group of animals, and drugs were started on the first day of modeling. The model control group (FDM), positive control group (FDM+atropine), and bencycloquidium bromide group (FDM+the eye drops of bencycloquidium bromide) were given blank solvent, 0.05% atropine, and 0.05% eye drops of bencycloquidium bromide by instillation into the conjunctival sac, once a day, 20 L/eye, for a total of four weeks. Among them, the component of the blank solvent is water for injection; the components of 0.05% atropine using water for injection as solvent comprises 0.05% of atropine, 1.0% of polyvinyl alcohol, and 0.02% of benzalkonium chloride; and the osmotic pressure regulator is sodium chloride, and the osmolality of the eye drops is adjusted to 300 to 320 mOsmol/kg, and the pH regulator is phosphate buffer (NaH2PO4—Na2HPO4), which is used to adjust the pH value of the eye drops to 6.8.
The detection indicators were as follows: • (1) Animals are generally observed clinically once a day. • (2) Animal body weight is measured upon receipt, on the 7th and 14th days of quarantine, and twice a week after modeling. • (3) The anterior chamber depth, lens thickness, vitreous cavity depth and ocular axial length were checked before modeling and once a week after administration. • (4) The diopter was checked before modeling and once a week after administration.

SMILES	change value of ocular axial length (guinea pig FDM model)	trend of diopter decline (guinea pig FDM model, 0.05% eye drops per day during four-week modeling period)	body weight (guinea pig FDM model)	preventive effect on myopia (guinea pig FDM myopia model)
C[N+]12CCC(CC1)C(OCC(O)(c1ccccc1)C1CCCC1)C2 (stereo not drawn) [bencycloquidium bromide]	significantly reduced; also recorded: significantly inhibit	significantly inhibit the trend of diopter decline	no significant difference in body weight	significant preventive effect
CN1[C@@H]2CC[C@H]1C[C@@H](OC(=O)C(CO)c1ccccc1)C2 (stereo partly drawn) [atropine]	significantly reduced		no significant difference in body weight	
